# Test results as given in PubChem BioAssay AID2401 (Southern Research Specialized Biocontainment Screening …, 2010).
# Where “and” joins values, the source holds several entries; their conditions need not be identical. Identical values can stand only once.
# Tested on: S. Typhimurium GFP reporter counter-screen, fluorescence, 4 h
# Experiment: nmpC-GFP reporter counter-screen in S. Typhimurium, dose response, counter-screen for PhoP regulon inhibitor project, Salmonella Typhimurium, GFP fluorescence (AID 2401);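 note: S. typhimurium with Mg-insensitive nmpC-GFP reporter grown at 10 µM Mg2+; drop in reporter fluorescence reflects general culture growth inhibition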
row,Compound,IC50
1,CCn1nc(C(=O)O)c(=O)c2cc3c(cc21)OCO3,49 µM
2,C(=N\Nc1ccccn1)/c1cccnc1,21.5 µM
3,CCn1cc(C(=O)O)c(=O)c2cc(F)c(N3CCNCC3)cc21,0.88 µM
4,C[CH2][Hg][S]c1ccccc1C(=O)O,54.9 µM
5,CC[C@H]1OC(=O)[C@H](C)[C@@H](O[C@H]2C[C@@](C)(OC)[C@@H](O)[C@H](C)O2)[C@H](C)[C@@H](O[C@@H]2O[C@H](C)C[C@H](N(C)C)[C@H]2O)[C@](C)(O)C[C@@H](C)CN(C)[C@H](C)[C@@H](O)[C@]1(C)O,2.37 µM
6,NC1=NC[C@H](Cc2ccc(O)cc2)N1CCCCC1CCCCC1,51 µM
7,Cn1cnc([N+](=O)[O-])c1Oc1cccc(O)c1,143 µM
8,Oc1c(C(Nc2cccc(C(F)(F)F)c2)c2cccnc2)ccc2cccnc12 (configuration not stated),39.3 µM
9,O=C(N/N=C/c1cc(Cl)ccc1O)c1ccncc1,20.6 µM
10,O=C(NC(CO)C(O)c1ccc([N+](=O)[O-])cc1)C(Cl)Cl (configuration not stated),10.1 µM
11,O=C(N/N=C/c1cc([N+](=O)[O-])ccc1O)c1ccncc1,24.2 µM
12,O=C(Cn1nc(CNc2ccc(Cl)cc2)[n+]2c1CCCCC2)c1ccc(Br)cc1,72.1 µM
13,CCOc1ccc(Nc2c3ccccc3nc3ccccc23)cc1,77.3 µM
14,Oc1cccc(Nc2nc(NCC3CCCO3)c3ccccc3n2)c1 (configuration not stated),99.8 µM
15,CCCCN(CCCC)C(=O)c1cn(CC)c2cc(N3CCN(C)CC3)c(F)cc2c1=O,21.9 µM
16,C[C@H]1c2cccc(O)c2C(O)=C2C(=O)C3(O)C(O)=C(C(N)=O)C(=O)[C@@H](N(C)C)[C@@H]3[C@@H](O)[C@@H]21 (some centres not stated),3.63 µM
17,CCCC(=O)NC(c1cccs1)c1cc([N+](=O)[O-])c2cccnc2c1O (configuration not stated),25.8 µM
18,O=C(N/N=C/c1cc(Cl)ccc1O)c1cccnc1,25.6 µM
19,C=CC1=C(C(=O)O)N2C(=O)[C@@H](NC(=O)/C(=N/OCC(=O)O)c3csc(N)n3)[C@H]2SC1,30.3 µM
20,CC[C@H]1OC(=O)C[C@@H](O)[C@H](C)[C@@H](O[C@@H]2O[C@H](C)C[C@H](N(C)C)[C@H]2O)[C@@H](CC=O)C[C@@H](C)C(=O)C=C[C@]2(C)O[C@H]2[C@@H]1C,14.2 µM
21,Cc1ccc(-c2csc(N=C(N)N)n2)c(C)c1,57.2 µM
22,O=C(Nc1ccccc1)Nc1ncc([N+](=O)[O-])s1,37.1 µM
23,CCCCCCCCCCCCCCCC[n+]1cccc(C(=O)N(CC)CC)c1,20.1 µM

row,Compound,IC50
1,Cc1sc2ncnc(N/N=C/c3ccccc3O)c2c1C,72.3 µM
2,O=Cc1ccc(O)c2ncccc12,8.12 µM
3,COc1c(N2CCN(C(=S)NCc3ccccc3)C(C)C2)c(F)cc2c(=O)c(C(=O)O)cn(C3CC3)c12 (configuration not stated),90.4 µM
4,Cc1nc(N)c(Cc2ccc(Cl)cc2Cl)c(N)n1,40.6 µM
5,O=C1C(SCCO)=C(SCCO)C(=O)c2ccccc21,68 µM
6,O=[N+]([O-])c1ccc(O)c(/C=N/Nc2ccccn2)c1,13.9 µM
7,CC1CCCC(C)N1/N=C/c1c[nH]c2ccc(Br)cc12 (configuration not stated),88.9 µM
8,NC(N)=NN=C1CCCCCCCCCCC1,77.3 µM
9,C/C(=N\NC(=O)c1cc2ccccc2cc1O)c1ccccn1,17 µM
10,OC(CNCCc1ccccc1)COc1ccc(OCC(O)CNCCc2ccccc2)cc1 (configuration not stated),63.7 µM
11,Cc1ccc(-c2csc(NC(=O)C[n+]3cc(-c4ccc(C)cc4)n4c3CCC4)n2)cc1,38.4 µM
12,Cc1onc(-c2ccccc2)c1C(=O)NC(=S)NNC(=O)c1ccc(O)cc1O,119 µM
13,CCCCNC(=O)c1cn(CC)c2cc(N3CCN(C)CC3)c(F)cc2c1=O,41.8 µM
14,Cc1nc2c(=O)n(C)c(=O)n(C)c2nc1Cl,106 µM
15,CCCOc1ccc(Br)cc1CSC(=N)N,134 µM
16,Cc1nc(N)nc(N)c1/C=C/C(C)(C)c1ccc(Cl)cc1,8.11 µM
17,CN1CCN(c2c(F)cc3c(=O)c(C(=O)O)cn4c3c2SCC4)CC1,8.06 µM and 8.09 µM
18,c1cnc2c(c1)ccc1cccnc12,24.5 µM
19,COc1cc(C(=O)Oc2c(CN3CCOCC3)cc(Cl)c3cccnc23)cc(OC)c1OC,126 µM
20,COc1ccc(Nc2cc(C)nc(NCc3ccccc3)n2)cc1,111 µM
21,CCN1/C(=C/C(C)=C/c2sc3ccccc3[n+]2CC)Sc2ccccc21,12.9 µM
22,COc1cc(Cc2cc(N)nc(N)n2)cc(OC)c1OC,0.74 µM
23,O=C(O)Cc1sc(Nc2ccc(Cl)cc2)nc1-c1cccs1,147 µM

row,Compound,IC50
1,CCOC(=O)C1=Nc2ccccc2C1=[N+]=[N-],42.6 µM
2,C#CCOCCOCCOCCNc1nc(N2CCN(C(=O)CCCCCCCCCCNC(=O)[C@H]([C@@H](C)CC)n3cc(CCCCN=C(N)N)nn3)CC2)nc(N2CCN(C(=O)CCCCCCCCCCNC(=O)[C@H](CCCN=C(N)N)n3cc(C[C@@H](C)CC)nn3)CC2)n1,45.9 µM
3,Oc1c(I)cc(Cl)c2cccnc12,8.56 µM
4,Oc1cccc2ccc(Nc3ccccn3)nc12,10.7 µM
5,COc1c(N2CCN(C(=S)Nc3ccccc3F)C(C)C2)c(F)cc2c(=O)c(C(=O)O)cn(C3CC3)c12 (configuration not stated),15.3 µM
6,Clc1ccc(-c2c[n+](Cc3ccc(Cl)cc3Cl)c3n2CCCCC3)cc1,98.8 µM
7,CC1CCc2cc(F)cc3c(=O)c(C(=O)O)cn1c23 (configuration not stated),20.9 µM
8,Cc1ccccc1OCc1n(CC(=O)OC2CC(C)CCC2C(C)C)c2ccccc2[n+]1C (configuration not stated),65.6 µM
9,Cc1cc(C(=O)N/N=C/c2ccc([N+](=O)[O-])s2)n[nH]1,35 µM
10,COc1ccc(Nc2cc(C)c3c(O)cccc3n2)cc1,47.2 µM
11,CCCCCCOC(=O)C[N+](C)(C)CCOC1CC2CCC1(C)C2(C)C (configuration not stated),31.9 µM
12,O=[N+]([O-])c1ccc(O)c2ncccc12,2.37 µM
13,CCCCCCCCCCCCCCCC[N+](C)(C)CC,25.4 µM
14,O=[N+]([O-])c1cc(O)c2ncccc2c1,16.8 µM
15,NC1=NC[C@H](Cc2ccc(O)cc2)N1CCC12CC3CC(CC(C3)C1)C2,70.7 µM
16,CCn1cc(C(=O)NCCCN(C)C)c(=O)c2cc(F)c(N3CCN(C)CC3)cc21,86.9 µM
17,c1ccc2c(c1)Sc1ccccc1N2CC1CN2CCC1CC2 (configuration not stated),108 µM
18,Cc1cc(C(=O)N/N=C/c2cc(Br)cc([N+](=O)[O-])c2O)c2ccccc2n1,109 µM
19,CCCCCCCCCC[n+]1cccc2c3ccccc3ccc21,23.4 µM
20,Cc1cc(/C=N/n2c(COc3ccccc3C)nc3ccccc3c2=O)c(O)c([N+](=O)[O-])c1,70.4 µM
21,OCc1ccc(O)c2ncccc12,123 µM
22,Oc1cccc(/C=N/NC(=S)Nc2cccnc2)c1O,28.5 µM
23,O=C(N/N=C/c1ccc([N+](=O)[O-])s1)C(O)c1ccccc1 (configuration not stated),49 µM

row,Compound,IC50
1,O=C(CN1CCCC1)N/N=C/c1c(O)ccc2ccccc12,29.9 µM
2,O=C1OC(/C(=C\Nc2ccc(F)cc2F)[N+](=O)[O-])c2ccccc21 (configuration not stated),61.1 µM
3,CCn1cc(C(=O)NCC(C)C)c(=O)c2cc(F)c(N3CCN(C)CC3)cc21,67.8 µM
4,CC(=O)NC(c1cccc([N+](=O)[O-])c1)c1ccc2cccnc2c1O (configuration not stated),47.1 µM
5,Nc1cc2nsnc2cc1Br,77.3 µM
6,O=C(C[n+]1cccc(CNC(=O)c2ccc(OC(F)F)cc2)c1)Nc1ccc(SC(F)F)cc1,78.4 µM
7,CCn1cc(C(=O)O)c(=O)c2cc(F)c(N3CCN(C(=O)Nc4ccccc4)CC3)cc21,75.2 µM
8,CCOC(=O)c1ccc(-c2ccc(C3Nc4ccccc4C(=O)N3O)o2)cc1 (configuration not stated),142 µM
9,CN(C)CCCN(C(=O)CCc1ccccc1)c1nc2ccc(Cl)cc2s1,39 µM
10,C=CCNc1ncnc2c1[nH]c1ccccc12,118 µM
11,Cc1cc(C(=O)N/N=C/c2ccc(O)c(O)c2O)c(C)n1-c1ccccc1,22.8 µM
12,CCCC(=O)NC(c1ccc(Cl)cc1)c1ccc2cccnc2c1O (configuration not stated),108 µM
13,CCCCCCCCCCCCCCCC[N+](C)(C)C,30.5 µM
14,Cc1ccc(Nc2cc(C)nn2-c2nc(C)cc(=O)[nH]2)cc1,13.1 µM
15,Oc1c(Cl)cc(Cl)c2cccnc12,10.5 µM
16,CO[C@H]1C=CO[C@@]2(C)Oc3c(C)c(O)c4c(O)c(c(C=NN5CCN(C)CC5)c(O)c4c3C2=O)NC(=O)C(C)=CC=C[C@H](C)[C@H](O)[C@@H](C)[C@@H](O)[C@@H](C)[C@H](OC(C)=O)[C@@H]1C,3.44 µM
17,COc1cnc(-c2ccccn2)[nH]c1=O,35.3 µM
18,O=C1c2ccccc2NC(c2ccc(-c3ccc(Br)cc3)o2)N1O (configuration not stated),38.7 µM
19,NC1=NC[C@H](c2ccccc2)N1CCCCC1CCCCC1,52.2 µM
20,Cc1ccccc1NC(=O)CCC(=O)N/N=C/c1cc([N+](=O)[O-])ccc1O,48.6 µM
21,Cc1ccc(C(C[N+](=O)[O-])c2c(N)n(C)c(=O)n(C)c2=O)cc1 (configuration not stated),15.1 µM
22,CCN1CCN(C(c2cccnc2)c2cc(Cl)c3cccnc3c2O)CC1 (configuration not stated),36 µM
23,NCCc1c(-c2ccccc2)n(-c2ccccc2)c2ccccc12,43.7 µM

row,Compound,IC50
1,CC(C)NC1=C(Cl)C(=O)c2ccccc2C1=O,38.3 µM
2,N#CC1=C(S)N(c2ccccc2)C(c2ccc(-c3ccccc3Cl)o2)NC1=O (configuration not stated),144 µM
3,Cc1ccc(C(=O)O)cc1N=Cc1cc(Br)cc(Br)c1O,85.6 µM
4,O=c1[nH]cc(F)c(=O)[nH]1,20.5 µM
5,CCn1cc(C(=O)O)c(=O)c2cc(F)c(N3CCN(C(=S)NC(=O)c4ccc(F)cc4)CC3)cc21,104 µM
6,CC[C@@H](C)[C@H](CNC)NC[C@@H](Cc1cccc2ccccc12)NCCc1cccc(C(F)(F)F)c1,32.3 µM
7,O=c1c(O)cccc2cc(O)c(O)c(O)c12,21.9 µM
8,CCOc1cc(/C=N/N=C(N)N)ccc1OCc1ccc(Cl)cc1,52.4 µM
9,Cc1ccc(/C=C/C(=O)c2ccccc(=O)c2O)cc1C,25 µM
10,O=[N+]([O-])/C=C/c1cc2ccccc2[nH]1,138 µM
11,Cc1ccc(C)c(/C=C/C(=O)c2ccccc(=O)c2O)c1,38.9 µM
12,CCCc1cnc(NCCNCC(O)COc2ccc(Cl)c(Cl)c2)nc1 (configuration not stated),40.3 µM
13,CC(=O)N1CCN(c2cc3c(cc2F)c(=O)c(C(=O)O)cn3C2CC2)CC1,36.5 µM
14,COc1ccc(-c2ccc3c(N)c(C(=O)c4cccc(OC)c4)sc3n2)cc1,83.2 µM
15,O=C(N/N=C/c1sc2ccccc2c1O)c1cccc2ccccc12,23.6 µM
16,CC(C)C(=O)NC(c1cccc([N+](=O)[O-])c1)c1ccc2cccnc2c1O (configuration not stated),51.7 µM
17,CC1COc2c(N3CCN(C)CC3)c(F)cc3c(=O)c(C(=O)O)cn1c23 (configuration not stated),0.8 µM
18,O=[N+]([O-])c1cc(CN2CCCC2)c2cccnc2c1O,40.6 µM
19,O=C1C=C(N2CCOCC2)c2ccccc2C1=O,55.5 µM
20,O=c1[nH][nH]c(-c2ccccc2O)c1C(C[N+](=O)[O-])c1cccc(Cl)c1 (configuration not stated),69.8 µM
